Where two headings read alike, the source gives them in different places.
Assays:
PI3K-alpha = PI3K-alpha (Homo sapiens, UniProt P42336); test: PI3K-alpha fluorescence polarization assay; assay type: biochemical; settings: read-out: PI3Kα Avg. IC50
PI3K-gamma = PI3K-gamma (Homo sapiens, UniProt P48736); test: PI3K-gamma fluorescence polarization assay; assay type: biochemical
Summary of the method: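 Reactions in 5 mM HEPES pH 7, 2.5 mM MgCl2, 25 μM ATP with 2.5 μM diC8-PI(4,5)P2 and 5 ng enzyme, 1 h at 25° C, then EDTA quench. Product detected by FP using GST-GRP1 PH domain (100 nM) and BODIPY-TMR-IP4 tracer (5 nM); final DMSO 0.8%.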

Sequence of PI3K-alpha (P42336 whole entry, species assumed): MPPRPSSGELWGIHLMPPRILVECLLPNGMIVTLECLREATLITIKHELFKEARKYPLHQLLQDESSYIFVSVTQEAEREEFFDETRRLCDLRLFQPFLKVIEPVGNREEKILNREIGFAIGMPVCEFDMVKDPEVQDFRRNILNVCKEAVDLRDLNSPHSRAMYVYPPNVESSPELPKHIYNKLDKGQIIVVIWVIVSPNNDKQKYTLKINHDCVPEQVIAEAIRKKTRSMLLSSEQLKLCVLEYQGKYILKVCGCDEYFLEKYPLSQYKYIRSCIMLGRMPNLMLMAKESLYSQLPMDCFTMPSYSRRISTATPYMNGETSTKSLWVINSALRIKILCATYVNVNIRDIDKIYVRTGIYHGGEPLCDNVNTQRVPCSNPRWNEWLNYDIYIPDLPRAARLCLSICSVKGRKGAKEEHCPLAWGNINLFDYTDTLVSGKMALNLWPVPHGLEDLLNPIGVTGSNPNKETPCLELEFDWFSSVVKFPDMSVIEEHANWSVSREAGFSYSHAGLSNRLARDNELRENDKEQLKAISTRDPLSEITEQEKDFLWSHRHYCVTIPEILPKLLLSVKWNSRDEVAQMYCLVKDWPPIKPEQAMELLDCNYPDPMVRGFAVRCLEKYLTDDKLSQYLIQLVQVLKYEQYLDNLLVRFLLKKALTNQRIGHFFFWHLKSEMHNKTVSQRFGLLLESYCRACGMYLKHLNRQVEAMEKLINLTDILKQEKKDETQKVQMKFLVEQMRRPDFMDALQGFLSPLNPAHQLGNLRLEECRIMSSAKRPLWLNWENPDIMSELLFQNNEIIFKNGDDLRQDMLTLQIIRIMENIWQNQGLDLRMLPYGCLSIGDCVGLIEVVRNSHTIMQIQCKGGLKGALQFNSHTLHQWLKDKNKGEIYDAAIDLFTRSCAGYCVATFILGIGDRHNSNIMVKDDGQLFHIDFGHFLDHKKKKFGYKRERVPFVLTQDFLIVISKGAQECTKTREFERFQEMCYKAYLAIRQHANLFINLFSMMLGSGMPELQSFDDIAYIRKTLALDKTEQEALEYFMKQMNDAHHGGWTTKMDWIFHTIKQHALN
Sequence of PI3K-alpha (P27986 whole entry partner, species assumed): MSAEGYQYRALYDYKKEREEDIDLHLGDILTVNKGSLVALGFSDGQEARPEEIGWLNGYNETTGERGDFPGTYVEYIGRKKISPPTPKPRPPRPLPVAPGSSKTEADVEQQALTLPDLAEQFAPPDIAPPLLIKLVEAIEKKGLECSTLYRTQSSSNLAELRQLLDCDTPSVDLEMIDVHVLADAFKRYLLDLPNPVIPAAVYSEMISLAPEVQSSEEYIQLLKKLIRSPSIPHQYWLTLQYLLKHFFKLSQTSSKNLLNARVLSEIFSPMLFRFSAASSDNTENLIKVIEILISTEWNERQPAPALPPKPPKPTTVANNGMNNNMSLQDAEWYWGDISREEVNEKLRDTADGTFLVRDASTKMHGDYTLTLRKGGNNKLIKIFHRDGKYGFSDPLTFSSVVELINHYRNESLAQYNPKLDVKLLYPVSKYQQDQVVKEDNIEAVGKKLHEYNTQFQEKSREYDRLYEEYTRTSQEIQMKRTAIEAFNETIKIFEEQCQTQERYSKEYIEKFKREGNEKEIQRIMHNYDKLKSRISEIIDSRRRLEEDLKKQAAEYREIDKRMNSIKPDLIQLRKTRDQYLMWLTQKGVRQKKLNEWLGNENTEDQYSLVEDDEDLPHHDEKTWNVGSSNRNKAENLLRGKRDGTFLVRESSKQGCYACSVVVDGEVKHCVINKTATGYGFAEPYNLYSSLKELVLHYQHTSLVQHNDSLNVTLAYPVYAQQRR
Sequence of PI3K-gamma (P48736 whole entry, species assumed, the tested form may be a part): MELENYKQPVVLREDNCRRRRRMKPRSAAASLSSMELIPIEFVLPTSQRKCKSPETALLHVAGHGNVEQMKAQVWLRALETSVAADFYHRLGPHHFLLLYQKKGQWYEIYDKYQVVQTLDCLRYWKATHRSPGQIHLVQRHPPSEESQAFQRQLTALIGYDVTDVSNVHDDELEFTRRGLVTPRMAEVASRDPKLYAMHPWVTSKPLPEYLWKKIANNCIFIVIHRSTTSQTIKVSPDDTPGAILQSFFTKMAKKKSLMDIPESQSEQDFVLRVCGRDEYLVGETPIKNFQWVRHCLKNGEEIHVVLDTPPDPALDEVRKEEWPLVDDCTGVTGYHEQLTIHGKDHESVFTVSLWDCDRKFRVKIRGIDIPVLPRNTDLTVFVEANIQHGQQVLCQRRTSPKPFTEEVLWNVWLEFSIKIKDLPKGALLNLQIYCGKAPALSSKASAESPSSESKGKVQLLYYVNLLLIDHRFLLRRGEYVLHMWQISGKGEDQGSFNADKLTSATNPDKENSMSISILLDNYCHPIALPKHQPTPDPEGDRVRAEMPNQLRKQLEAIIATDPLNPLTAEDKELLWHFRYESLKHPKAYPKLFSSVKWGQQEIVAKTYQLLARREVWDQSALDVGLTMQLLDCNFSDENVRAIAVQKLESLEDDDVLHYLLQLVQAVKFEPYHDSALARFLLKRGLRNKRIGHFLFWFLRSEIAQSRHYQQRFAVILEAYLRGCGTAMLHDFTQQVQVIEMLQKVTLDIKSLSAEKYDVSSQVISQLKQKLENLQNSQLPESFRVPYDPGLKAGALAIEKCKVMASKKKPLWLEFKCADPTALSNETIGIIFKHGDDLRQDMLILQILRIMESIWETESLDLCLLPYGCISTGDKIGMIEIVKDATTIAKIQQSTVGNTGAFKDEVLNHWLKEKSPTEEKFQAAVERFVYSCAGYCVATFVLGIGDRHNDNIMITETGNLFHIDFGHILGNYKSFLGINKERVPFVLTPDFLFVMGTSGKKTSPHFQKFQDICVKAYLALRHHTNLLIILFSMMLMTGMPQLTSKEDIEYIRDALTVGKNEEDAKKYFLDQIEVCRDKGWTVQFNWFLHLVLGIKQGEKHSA

| Molecule | IC50 (PI3K-alpha) [nM] | IC50 (PI3K-gamma; PI3Kγ Avg. IC50) [nM] | IC50 (PI3K-gamma; read-out: PI3Kγ Avg. IC50) [nM] |
| --- | --- | --- | --- |
| Cn1cc(/C=C2\Oc3ccc(N)cc3C2=O)c2c(-c3ccccc3)cccc21 [Compound 534, (2Z)-5-amino-2-[(1-methyl-4-phenyl-1H-indol-3-yl)methylene]-1-benzofuran-3(2H)-one] | 5880 | 476 |  |
| Cn1cc(C=C2Oc3cc(O)cc(O)c3C2=O)c2c(-c3ccccc3)cccc21 [Example 268, 4,6-dihydroxy-2-[(1-methyl-4-phenyl-1H-indol-3-yl)methylene]-1-benzofuran-3(2H)-one] | > 5740 | 2690 |  |
| COc1ccc2c(c1)c(C=C1Oc3cccc(O)c3C1=O)c(C)n2C [Example 121, 4-hydroxy-2-[(5-methoxy-1,2-dimethyl-1H-indol-3-yl)methylene]-1-benzofuran-3(2H)-one] | 317 | 5430 |  |
| COc1ccc2c(c1)c(/C=C1\Oc3ccc(O)cc3C1=O)c(C)n2CCN1CCN(C)CC1 [Compound 519] | 273 | 6050 |  |
| Cn1cc(/C=C2\Oc3ccc(NC(=O)OC(C)(C)C)cc3C2=O)c2c(-c3ccccc3)cccc21 [Compound 532, tert-butyl {(2Z)-2-[(1-methyl-4-phenyl-1H-indol-3-yl)methylene]-3-oxo-2,3-dihydro-1-benzofuran-5-yl}carbamate] | > 10000 | > 10000 |  |
| 4-hydroxy-2-{[5-methoxy-2-methyl-1-(2-morpholin-4-ylethyl)-1H-indol-3-yl]methylene}-1-benzofuran-3(2H)-one [Example 130] | 650 |  | 4140 |

Continued, in another order:

| IC50 (PI3K-alpha) [nM] | IC50 (PI3K-gamma; PI3Kγ Avg. IC50) [nM] | Molecule | IC50 (PI3K-gamma; read-out: PI3Kγ Avg. IC50) [nM] |
| --- | --- | --- | --- |
| 15.5 | 121 | CNC(=O)Nc1ccc2c(c1)C(=O)/C(=C/c1c(CN(C)C)[nH]c3ccc(OC)cc13)O2 [Compound 612, 1-[(2Z)-2-({2-[(dimethylamino)methyl]-5-methoxy-1H-indol-3-yl}methylidene)-3-oxo-2,3-dihydro-1-benzofuran-5-yl]-3-methylurea] |  |
| 502 | 1750 | COc1cc2[nH]cc(C=C3Oc4cc(O)cc(O)c4C3=O)c2cc1OC [Example 181, 2-[(5,6-dimethoxy-1H-indol-3-yl)methylene]-4,6-dihydroxy-1-benzofuran-3(2H)-one] |  |
| 62.5 | 139 | CCc1cc(OC)cc2c(C=C3Oc4cc(O)cc(O)c4C3=O)cn(CCCC#N)c12 [Compound 471, 4-{3-[(4,6-dihydroxy-3-oxo-1-benzofuran-2(3H)-ylidene)methyl]-7-ethyl-5-methoxy-1H-indol-1-yl}butanenitrile] |  |
| 4 | 982 | CNC(=O)Nc1ccc2c(c1)C(=O)/C(=C/c1c(C)n(CCCN3CCC(O)CC3)c3ccc(OC)cc13)O2 [Compound 587, 1-[(2Z)-2-({1-[3-(4-hydroxypiperidin-1-yl)propyl]-5-methoxy-2-methyl-1H-indol-3-yl}methylene)-3-oxo-2,3-dihydro-1-benzofuran-5-yl]-3-methylurea] |  |
| 222 | 1530 | CNC(=O)Nc1ccc2c(c1)C(=O)/C(=C/c1c[nH]c3c(C#N)cc(OC)cc13)O2 [Compound 595, 1-{(2Z)-2-[(7-cyano-5-methoxy-1H-indol-3-yl)methylene]-3-oxo-2,3-dihydro-1-benzofuran-5-yl}-3-methylurea] |  |
| 10 | 950 | CNC(=O)Nc1ccc2c(c1)C(=O)/C(=C/c1c(C)n(CCCN3CCN(CCO)CC3)c3ccc(OC)cc13)O2 [Compound 599, 1-{(2Z)-2-[(1-{3-[4-(2-hydroxyethyl)piperazin-1-yl]propyl}-5-methoxy-2-methyl-1H-indol-3-yl)methylidene]-3-oxo-2,3-dihydro-1-benzofuran-5-yl}-3-methylurea] |  |
| 1380 | 9100 | COc1ccc2c(c1)c(/C=C1\Oc3ccc(CO)cc3C1=O)cn2CCN1CCN(C)CC1 [Compound 541, (2Z)-5-(hydroxymethyl)-2-({5-methoxy-1-[2-(4-methylpiperazin-1-yl)ethyl]-1Hindol-3-yl}methylene)-1-benzofuran-3(2H)-one] |  |

— patent publication US20090311217A1, “3-SUBSTITUTED-1H-INDOLE COMPOUNDS, THEIR USE AS MTOR KINASE AND PI3 KINASE INHIBITORS, AND THEIR SYNTHESES” (priority 2008, published 2009)
